Laboratory results: PMC12494831, “Discovery of new pyridine 3-carboxylic acid-based pharmacophores as dual anti-inflammatory and anti-hyperglycemic agents” (Scientific Reports, 2025)
Blank lines part the entries; values can stand above or below the molecule they belong to.

How the values were obtained:
MTT cell viability assay = assay type: cell-based; conditions: mouse, RAW 264.7 macrophage cells, control 100
Experimental: (§1) The toxicity of the molecule was investigated by the MTT cell viability assay employing RAW macrophage cells. For this study, two lead compounds, 2b and 2e, were screened based on the in vitro results. […] (The OD values in Tables S6 and S7)
(§2) The MTT ((3-(4,5-Dimethylthiazol-2-yl)-2,5-Diphenyltetrazolium Bromide)) assay was employed to determine viability for the synthesized potent compounds 2b and 2e; the cell viability results portray the compounds’ cytotoxicity. The assay was conducted on RAW macrophage cells (RAW 264.7) with various dilutions of 2b and 2e (10, 20, 30, 40, and 50 µM). The results were confirmed with a control.

[1] = system: RAW macrophage cells (RAW 264.7); assay: MTT cell viability assay; assay type: cell-based; conditions: for MTT assay Average OD: control average OD 0.924
Experimental: as §1, §2

α-amylase (EC.3.2.1.1) = target: T1, α-amylase (EC.3.2.1.1) (Homo sapiens, UniProt P04746); assay: In vitro α-amylase inhibition (starch/DNS, 540 nm); assay type: biochemical
T1 sequence (P04746 16-511): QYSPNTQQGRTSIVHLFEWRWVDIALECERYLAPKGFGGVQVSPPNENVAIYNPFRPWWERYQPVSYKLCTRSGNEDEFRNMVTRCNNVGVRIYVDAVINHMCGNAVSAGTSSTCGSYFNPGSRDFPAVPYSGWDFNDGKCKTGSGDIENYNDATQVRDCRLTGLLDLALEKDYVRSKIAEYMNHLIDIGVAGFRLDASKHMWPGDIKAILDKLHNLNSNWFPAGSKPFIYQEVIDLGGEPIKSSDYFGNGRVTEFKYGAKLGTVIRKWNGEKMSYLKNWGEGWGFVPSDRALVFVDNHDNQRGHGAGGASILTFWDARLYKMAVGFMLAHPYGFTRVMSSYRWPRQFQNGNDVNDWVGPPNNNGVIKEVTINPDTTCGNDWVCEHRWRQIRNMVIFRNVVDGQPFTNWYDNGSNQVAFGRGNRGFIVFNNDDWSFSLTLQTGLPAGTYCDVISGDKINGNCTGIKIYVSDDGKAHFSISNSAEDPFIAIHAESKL
Experimental: α-Amylase enzyme and other chemical reagents are used for enzyme inhibitory activity. The characterized compounds are diluted in an analytical grad solvent (DMSO) system at 1 mg/mL solution concentration. The activity reaction of the synthesized analogues on the enzyme was treated at final concentrations of 2 to 10 µg. In the interaction between enzyme and compounds, 10 min incubation was maintained before the inhibitory activity started. The enzyme-receptor inhibition efficiency was calculated and compared with the positive control.
Sodium phosphate buffer 0.2 mM (pH 6.9 with 6 × 10^− 4 M NaCl) in 500 µL enzyme solution (0.5 mg/mL) was taken and incubated with test samples (2–10 µg/mL) at room temperature for 10 min. A starch (1%) solution of 500 µL with phosphate buffer was added to all test inhibitor samples; further, the tubes were incubated for 10 min at 28 °C. The reaction test tubes were incubated for another 5 min in the water bath (100 °C) after the addition of the color reagent dinitro salicylic acid and cooled at room temperature until reached. Finally, 10 mL of distilled water was mixed with each test tube, and the colored mixture was measured at a fixed wavelength of 540 nm. The absorbance without sample solution (blank) and control (buffer and standard drug sample) was measured at 540 nm. The α-amylase inhibition efficiency was validated using the following equation:2 [drawing 2]

human RBC = assay: Anti-inflammatory activity: hypotonic solution-induced human RBC hemolysis (560 nm); assay type: cell-based; conditions: for IC50: induced human RBC hemolysis, read-out: Inflammatory IC50±SD
Experimental: All synthesized compounds are validated in human RBC (blood sample); the blood sample was collected from a healthy volunteer in an EDTA tube. The EDTA tube further proceeded with centrifugation at 3000 rpm for 30 min. A supernatant (which contains plasma and leucocytes) solution was isolated, and the obtained RBC (red blood cells) was further treated with Alsever’s reagent. Alsever’s reagent was prepared as follows: sodium citrate (0.8 g, 2.6 mmol), dextrose (2 g, 11.0 mmol), citric acid (0.050 g, […]), and sodium chloride (0.42 g, 7.0 mmol) were solubilized in 100 mL of distilled water. The above mixture was centrifuged for 30 min at 3000 rpm. Then, colloidal blood cells were separated, carefully transferred, and washed with 0.85% of the isosaline solution; this process continued until a clear solution appeared. Employing coagulated RBC and generated human erythrocyte hemolysis, the anti-inflammatory activity and potential of the synthesized entities were evaluated. The tested compounds are prepared at different concentrations for the inhibition activity of inflammation, along with 100 µL of a purified RBC sample utilized. All characterized samples were followed by adding 5.0 mL of trisodium phosphate (10 mM) and 5.0 mL of sodium chloride (5.0 mM) buffer solutions. After the addition of the above mixtures, the test samples are incubated for 15 min at room temperature with RBC and hypotonic mixtures. After incubation, the mixture was centrifuged at 3000 rpm for 15 min. The final supernatant liquid solution was measured at 560 nm using a UV-visible spectrophotometer.3 [drawing 3]

[2] = DPPH radical scavenging (517 nm); conditions: for IC50: read-out: DPPH IC50±SD
Experimental: (§3) The experimental method principle relies on the degradation of the purple color of the DPPH radical and the blue color reduction of the ABTS cation radical. This is due to consuming the electron or hydrogen radical from the antioxidant (A-H). Both assays were measured at 517 nm and 734 nm, respectively. The distinction of color changes illustrates the potential scavenging activity of the inhibitor molecules in terms of hydrogen-donating proficiency. From this, we can conclude the anti-oxidant efficacy.
Methanolic DPPH solution (0.15 mM) was prepared, and 1.0 mL of DPPH solution was mixed with 3.0 mL of synthesized molecules at different concentrations (20 µM to 100 µM). The mixture was constantly swirled and stored RT for 30 min, followed by absorbance measurement at 517 nm.

[3] = ABTS cation radical scavenging (734 nm); conditions: for IC50: read-out: ABTS IC50±SD
Experimental: as §3
In brief, 7.0 mM ABTS in H2O and 2.5 mM potassium persulfate (1:1) were shaken well to generate ABTS cation radicals and kept in the dark at RT for 15–20 h before it is used for the experiment. After, the radical was mixed with the synthesized molecules at different concentrations (20 µM to 100 µM). The resultant solution was measured for absorbance at 734 nm. Ascorbic acid is the positive control for this experiment.1 [drawing 1]

α-Amylase Inhibition % (α-amylase (EC.3.2.1.1); 2 µg): 80.52%
α-Amylase Inhibition % (α-amylase (EC.3.2.1.1); 4 µg): 80.38%
α-Amylase Inhibition % (α-amylase (EC.3.2.1.1); 6 µg): 77.01%
α-Amylase Inhibition % (α-amylase (EC.3.2.1.1); 8 µg): 69.1%
α-Amylase Inhibition % (α-amylase (EC.3.2.1.1); 10 µg): 54.9%
IC50 (α-amylase (EC.3.2.1.1); test concentrations 2-10 µg, read-out: α-Amylase IC50±SD (converted)): 4.37 µM
IC50 [2]: 15.63 ± 0.13 µM
IC50 [3]: 19.9 ± 0.25 µM
SMILES: COC(=O)/C=C/c1ccc(OC(=O)c2cccnc2)c(OC)c1 [Compound 2b, 2-Methoxy-4-(3-methoxy-3-oxoprop-1-en-1-yl) phenyl nicotinate]
viability at 10 µM (MTT cell viability assay; 10 µM): 85.4%
viability at 20 µM (MTT cell viability assay; 20 µM): 77.4%
viability at 30 µM (MTT cell viability assay; 30 µM): 68.5%
viability at 40 µM (MTT cell viability assay; 40 µM): 58.8%
viability at 50 µM (MTT cell viability assay; 50 µM): 45.3%
MTT assay Triplicate values OD1 ([1]; 10 µM): 0.790
MTT assay Triplicate values OD2 ([1]; 10 µM): 0.792
MTT assay Triplicate values OD3 ([1]; 10 µM): 0.785
MTT assay Average OD ([1]; 10 µM): 0.789
MTT assay Triplicate values OD1 ([1]; 20 µM): 0.719
MTT assay Triplicate values OD2 ([1]; 20 µM): 0.712
MTT assay Triplicate values OD3 ([1]; 20 µM): 0.711
MTT assay Average OD ([1]; 20 µM): 0.714
MTT assay Triplicate values OD1 ([1]; 30 µM): 0.634
MTT assay Triplicate values OD2 ([1]; 30 µM): 0.629
MTT assay Triplicate values OD3 ([1]; 30 µM): 0.636
MTT assay Average OD ([1]; 30 µM): 0.633
MTT assay Triplicate values OD1 ([1]; 40 µM): 0.542
MTT assay Triplicate values OD2 ([1]; 40 µM): 0.541
MTT assay Triplicate values OD3 ([1]; 40 µM): 0.546
MTT assay Average OD ([1]; 40 µM): 0.543
MTT assay Triplicate values OD1 ([1]; 50 µM): 0.418
MTT assay Triplicate values OD2 ([1]; 50 µM): 0.416
MTT assay Triplicate values OD3 ([1]; 50 µM): 0.423
MTT assay Average OD ([1]; 50 µM): 0.419
Toxicity, outcome of the MTT cell viability assay (in words) ([1]; RAW macrophage cells): viable for the cell line
inhibition at 20 µM (human RBC): 60%
inhibition at 40 µM (human RBC): 69.9%
inhibition at 60 µM (human RBC): 71%
inhibition at 80 µM (human RBC): 76%
inhibition at 100 µM (human RBC): 85.8%
IC50 (human RBC): 18.41 ± 0.13 µM
DPPH Inhibition % ([2]; 20 µM): 66.2%
DPPH Inhibition % ([2]; 40 µM): 86.32%
DPPH Inhibition % ([2]; 60 µM): 87.6%
DPPH Inhibition % ([2]; 80 µM): 88%
DPPH Inhibition % ([2]; 100 µM): 88.4%
ABTS Inhibition % ([3]; 20 µM): 59.6%
ABTS Inhibition % ([3]; 40 µM): 60.8%
ABTS Inhibition % ([3]; 60 µM): 60.9%
ABTS Inhibition % ([3]; 80 µM): 61%
ABTS Inhibition % ([3]; 100 µM): 61.4%

IC50 [2]: 93.69 ± 0.26 µM
IC50 [3]: 20.57 ± 0.13 µM
SMILES: COC(=O)/C=C/c1ccc(OC)c(OC(=O)c2cccnc2)c1 [Compound 2c, 2-Methoxy-5-(3-methoxy-3-oxoprop-1-en-1-yl) phenyl nicotinate]
MTT assay Triplicate values OD1 ([1]; 10 µM): 0.824
MTT assay Triplicate values OD2 ([1]; 10 µM): 0.826
MTT assay Triplicate values OD3 ([1]; 10 µM): 0.819
MTT assay Average OD ([1]; 10 µM): 0.823
MTT assay Triplicate values OD1 ([1]; 20 µM): 0.754
MTT assay Triplicate values OD2 ([1]; 20 µM): 0.753
MTT assay Triplicate values OD3 ([1]; 20 µM): 0.758
MTT assay Average OD ([1]; 20 µM): 0.755
MTT assay Triplicate values OD1 ([1]; 30 µM): 0.689
MTT assay Triplicate values OD2 ([1]; 30 µM): 0.695
MTT assay Triplicate values OD3 ([1]; 30 µM): 0.692
MTT assay Average OD ([1]; 30 µM): 0.692
MTT assay Triplicate values OD1 ([1]; 40 µM): 0.596
MTT assay Triplicate values OD2 ([1]; 40 µM): 0.604
MTT assay Triplicate values OD3 ([1]; 40 µM): 0.606
MTT assay Average OD ([1]; 40 µM): 0.602
MTT assay Triplicate values OD1 ([1]; 50 µM): 0.520
MTT assay Triplicate values OD2 ([1]; 50 µM): 0.525
MTT assay Triplicate values OD3 ([1]; 50 µM): 0.518
MTT assay Average OD ([1]; 50 µM): 0.521
inhibition at 20 µM (human RBC): 48%
inhibition at 40 µM (human RBC): 52.9%
inhibition at 60 µM (human RBC): 62.5%
inhibition at 80 µM (human RBC): 77%
inhibition at 100 µM (human RBC): 86%
IC50 (human RBC): 27.65 ± 0.2 µM
DPPH Inhibition % ([2]; 20 µM): 32%
DPPH Inhibition % ([2]; 40 µM): 34.9%
DPPH Inhibition % ([2]; 60 µM): 36.1%
DPPH Inhibition % ([2]; 80 µM): 48%
DPPH Inhibition % ([2]; 100 µM): 51.9%
ABTS Inhibition % ([3]; 20 µM): 58%
ABTS Inhibition % ([3]; 40 µM): 59.7%
ABTS Inhibition % ([3]; 60 µM): 59.8%
ABTS Inhibition % ([3]; 80 µM): 60%
ABTS Inhibition % ([3]; 100 µM): 60%
